The term inhibition denotes the drop in the measured response relative to a control, in per cent. A low value points to a weak effect.

Counter-ions that a name gives are not always drawn.

For five molecules, inhibition results are on record in patent publication US4283539A, “Isoquinoline acetic acids” (Pfizer Inc., priority 1979, dated 1981).

The target of this assay is T1, aldose reductase (Bos taurus, UniProt P16116).
T1 construct: partially purified aldose reductase enzyme obtained from calf lens; from tissue; host or cells: calf lens
In words: Inhibition of aldose reductase enzyme activity (procedure of U.S. Pat. No. 3,821,383, based on Hayman et al.). It counts as biochemical. The following applies: partially purified aldose reductase from calf lens; for inhibition at 100 µM: 10^-4 M; for inhibition at 10 µM: 10^-5 M. From the text:
The activity of the compounds of this invention as aldose reductase inhibitors and as agents for the treatment of diabetic cataracts may be determined by standard pharmacological tests. Such tests include, for example, measuring their ability to inhibit the enzyme activity of isolated aldose reductase, following the general procedure described in U.S. Pat. No. 3,821,383 and based on the procedure of Hayman et al., J. Biol. Chem. 240, 877 (1965). Based on the activity of the compounds of this invention in this test, it is expected that the compounds will also show activity as aldose reductase inhibitors when tested at suitable concentrations in other standard pharmaceutical tests, for example those measuring their ability to reduce or inhibit sorbitol accumulation in the sciatic nerve of acutely streptozotocinized (i.e. diabetic) rats; measuring their ability to reverse already-elevated sorbitol level in the sciatic nerve and lens of chronic streptozotocin-induced diabetic rats; measuring their ability to prevent or inhibit galacticol formation in the lens of acutely galatosemic rats; and measuring their ability to delay cataract formation and reduce the severity of lens opacities in chronic galactosemic rats.
The compounds produced in Examples 4, 7, 8, 9 and 10 were tested for their ability to reduce or inhibit aldose reductase enzyme activity, following the procedure described in U.S. Pat. No. 3,821,383 and based on the procedure of Hayman et. al., Journal of Biological Chemistry, 240, 877 (1965). The substrate employed was partially purified aldose reductase enzyme obtained from calf lens. The results obtained with each compound at a concentration of 10^-4 M and 10^-5 M are expressed as percent inhibition of enzyme activity.

Molecule `Cc1c(CC(=O)O)c2ccccc2c(=O)n1OCc1ccc(Cl)c(Cl)c1` [Example 4, 2-(3,4-Dichlorobenzyloxy)-1,2-dihydro-3-methyl-1-oxo-4-isoquinoline Acetic Acid] gave an inhibition at 100 µM of 90% and an inhibition at 10 µM of 77%.

`Cc1c(CC(=O)O)c2ccccc2c(=O)n1Cc1ccc(Cl)c(Cl)c1` [Example 7, 2-(3,4-Dichlorobenzyl)-1,2-dihydro-3-methyl-1-oxo-4-isoquinoline Acetic Acid] yielded an inhibition at 100 µM of 27%.

On to `Cc1nc(OCc2ccc(Cl)c(Cl)c2)c2ccccc2c1CC(=O)O` [Example 8, 1-(3,4-Dichlorobenzyloxy)-3-methyl-4-isoquinoline Acetic Acid], for which the inhibition at 100 µM was 83% and 10 µM produced 95% inhibition.

As to `Cc1nc(Oc2ccc(Cl)cc2)c2ccccc2c1CC(=O)O` [Example 9, 1-(4-Chlorophenoxy)-3-methyl-4-isoquinoline Acetic Acid], at 100 µM the inhibition was 95% and at 10 µM the inhibition was 91%.

Take `Cc1nc(N(C)Cc2ccc(Cl)cc2)c2ccccc2c1CC(=O)O` [Example 10, 1-(N-4-Chlorobenzyl-N-methyl-amino)-3-methyl-4-isoquinoline Acetic Acid Hydrochloride]: the inhibition at 100 µM amounted to 99% and testing at 10 µM gave an inhibition of 97%.
